Test results taken from US9259350B2, “Ophthalmic devices for delivery of beneficial agents” (CooperVision International Holding Company, LP, priority 2012, dated 2016).

Key:
[1] = PSS uptake by hydrated and non-hydrated Proclear lenses; format: physicochemical
[2] = Drug uptake by dry vs wet (hydrated) Proclear lenses after autoclave; format: physicochemical; conditions: for % Δ Dry vs Wet (drug uptake): Proclear lens; for Drug Uptake, Wet Lens: hydrated Proclear lens; for Drug Uptake, Wet Lens / Drug Uptake, Dry Lens: autoclaved, n=3; for Drug Uptake, Dry Lens: non-hydrated Proclear lens
Description: The ability of hydrated and non-hydrated (dry) Proclear lenses to take up olopatadine, ketotifen, and cromolyn was evaluated. At physiological pH, olopatadine is zwitterionic, ketotifen is positively charged, and cromolyn is negatively charged. […] The dry lenses were removed from their original molds, packaged with 3 ml of each drug solution without any intermediate hydration step and autoclaved. For controls, each drug solution was packaged without a lens and autoclaved. After autoclave, the amount of drug in each packaging solution was measured by HPLC.

[3] = εPLL uptake by non-hydrated Proclear lenses in different buffers; format: physicochemical; conditions: dry Proclear lens, autoclaved, n=3
Description: The uptake and release of εPLL from non-hydrated (i.e. dry) Proclear lenses was evaluated. The εPLL (Chisso Corporation, Tokyo, Japan) was prepared at a concentration of 500 ppm in three different buffers, PBS, TRIS buffered saline (0.023% tris(hydroxymethyl)methylamine, 0.544% trizma hydrochloride, 0.819% NaCl; TBS), or Tris-sorbitol. Lenses were individually packaged, in triplicate, in 1.2 ml of each εPLL preparation and autoclaved. Additionally, vials containing 1.2 ml 500 ppm εPLL in each buffer with no lens (control vials) were also autoclaved. The amounts of εPLL present in the post-autoclave solution of the test lens vials and in the control vial were determined by cationic size exclusion chromatography using a sample injection volume of 5 μl, a Water Acquity UPLC BEH 125 SEC 1.7 μm 4.6×150 mm at room temperature, and a flow rate of 0.4 ml/min using 90% 0.2M NaCl/0.1% TFA in H20: 10% ACN isocratically. The average of the amount of εPLL taken up by each test lens (n=3) was calculated by subtracting the amount of εPLL present in the post-autoclave solution of the test lens vial from the amount of εPLL present in the control vial. Lenses packaged with 500 ppm εPLL in PBS took up an average of 88 μg εPLL. Lenses packaged with 500 ppm εPLL in TBS took up 47 μg εPLL, and lenses packaged with 500 ppm εPLL in Tris-sorbitol took up 208 μg εPLL.

[4] = εPLL uptake by hydrated Proclear lenses, packaging solutions of different ionic strength; format: physicochemical
Description: (§1) For example, hydrated Proclear contact lenses were packaged and autoclaved in PBS having an ionic strength of about 0.2 and comprising 500 ppm εPLL, an antimicrobial peptide. These lenses took up an average of 5 μg of the εPLL/lens. […] Thus, in various examples, the packaging solution has an ionic strength of less than about 0.15, 0.10, or 0.05 as calculated by the equation: […]

Serratia marcescens = assay: Antimicrobial activity of εPLL-packaged Proclear lenses; format: cell-based
Description: as §1

[5] = high concentration: 250 μg/ml ketotifen, 1000 μg/ml olopatadine, 2000 μg/ml cromolyn
[6] = low concentration: 25 μg/ml ketotifen, 200 μg/ml olopatadine, 400 μg/ml cromolyn
[7] = high concentration: 250 μg/ml ketotifen (borate buffer), 1000 μg/ml olopatadine (PBS), 2000 μg/ml cromolyn (PBS)
[8] = low concentration: 25 μg/ml ketotifen (borate buffer), 200 μg/ml olopatadine (PBS), 400 μg/ml cromolyn (PBS)

| Molecule | % Δ Dry vs Wet (drug uptake) [2, 5] [%] | % Δ Dry vs Wet (drug uptake) [2, 6] [%] | Drug Uptake, Wet Lens [2, 7] [µg] | Drug Uptake, Wet Lens [2, 8] [µg] | Drug Uptake, Dry Lens [2, 7] [µg] | Drug Uptake, Dry Lens [2, 8] [µg] | other results |
| --- | --- | --- | --- | --- | --- | --- | --- |
| C=Cc1ccc(S(=O)(=O)[O-])cc1.[Na+] [compound 206, styrene sulfonate] | – | – | – | – | – | – | uptake by dry lens compared to wet lens ([1]; Proclear lens): significantly more; % Δ Dry vs Wet (uptake) ([1]; Proclear lens, 0.01 mole/liter PSS, 48 hours): 16%; Uptake, Wet Lens ([1]; hydrated Proclear lens, 0.01 mole/liter PSS, 48 hours, n=3): 92 µg; Uptake, Dry Lens ([1]; non-hydrated Proclear lens, 0.01 mole/liter PSS, 48 hours, n=3): 110 µg |
| CN1CCC(=C2c3ccccc3CC(=O)c3sccc32)CC1 [ketotifen] | −6 | −17 | 122 | 12 | 115 | 10 | – |
| CN(C)CC/C=C1/c2ccccc2COc2ccc(CC(=O)O)cc21 [olopatadine] | 6 | 16 | 202 | 45 | 215 | 52 | – |
| epsilon polylysine [εPLL] | – | – | – | – | – | – | εPLL uptake (average) ([3]; 500 ppm εPLL in PBS): 88 µg; εPLL uptake ([3]; 500 ppm εPLL in TBS): 47 µg; εPLL uptake ([3]; 500 ppm εPLL in Tris-sorbitol): 208 µg; εPLL uptake (average) ([4]; hydrated Proclear lenses autoclaved in PBS, ionic strength about 0.2, 500 ppm εPLL): 5 μg/lens; εPLL uptake (average) ([4]; hydrated Proclear lenses autoclaved in TRIS buffer with 2% sorbitol, ionic strength about 0.02): about 120 μg/lens; antimicrobial activity against Serratia marcescens (Serratia marcescens; Proclear lenses autoclaved in PBS with 500 ppm εPLL): no antimicrobial activity; kill of Serratia marcescens (Serratia marcescens; Proclear lenses autoclaved in TRIS buffer with 2% sorbitol with εPLL): ~4 log |
